From PubChem BioAssay AID1963866 (Molecular Pharmacology Branch, DTP, NCI, 2024)

System: PDC KRAS tumor spheroids with HUVEC/MSC, viability
Assay: Anticancer human tumor 349418-098-R-PDC patient-derived lung adenocarcinoma cell line growth inhibition [KRAS2]
Details: for IC50: curve of first compound; for viability, T/C: stronger effect = lower value
Source text: Multicellular complex tumor spheroid response to RAS pathway inhibitors in combination with a targeted agents in patient-derived cell lines with oncogenic KRAS variants from multiple cancer types
A high-throughput screen of multi-cell type tumor spheroids was designed to identify active combinations of targeted small molecules and KRAS pathway inhibitors. Complex spheroids include a stromal component modeled by human endothelial cells (HUVEC) and fibroblasts modeled by human mesenchymal stem cells (MSCs). The concentration ranges selected for each drug and investigational agent were based upon clinically achievable concentrations if the clinical Cmax of the agent was known.
Compounds. The drugs and investigational agents: BI-3406 (NSC825286), BAY-293 (NSC824723), batoprotafib (TNO155; NSC825523), sotorasib (AMG 510; NSC818433), MRTX1257 (NSC819558), elimusertib (BAY 1895344; NSC800525), molibresib (GSK525762; NSC774829), temuterkib (LY3214996; NSC803410), venetoclax (NSC766270), alisertib (NSC759677), olaparib (NSC753686), talazoparib (NSC767125), erdafitinib (NSC781556), ipatasertib (NSC767898), cabozantinib (NSC761068), nintedanib (NSC756659), abemaciclib (NSC768073), docetaxel (NSC628503), trametinib (NSC758246), and sapanisertib (NSC764658) were obtained from the National Cancer Institute (NCI) Developmental Therapeutics Program Chemical Repository. The FDA-approved anticancer drug set is available from the Developmental Therapeutics Program. […] The stock solutions were prepared in dimethyl sulfoxide (DMSO, Sigma-Aldrich, St. Louis, MO, cat. D2650) at 800-fold the tested concentration and stored at -70 degrees C prior to their use. All drugs and investigational agents were tested over a range starting from a high concentration at or near the clinical Cmax and decreasing in half-log increments. If the clinical Cmax for an agent had not been determined, the highest concentration tested was 10 microM.
Cell Culture. All cells were maintained in an incubator at 37 degrees C and 5% CO2 with 95% humidity. The PDC lines were cultured according to standard operating procedures established by the NCI PDMR (https://pdmr.cancer.gov/sops/default.htm). Briefly, all PDCs were thawed and cultured in Matrigel-coated flasks prepared with a working solution of 1X Ham's F-12 nutrient mix, without supplementation (Invitrogen, Waltham, MA, cat. 11765054), 100 U/mL penicillin-streptomycin (Invitrogen, cat. 15140122), and 2.5% Matrigel (Corning Inc., Corning, NY, cat. 354248) for the first three passages. All PDCs were cultured in complete DMEM/F-12 media containing advanced DMEM/F-12 (Invitrogen, cat. 12634028), 4.9% defined fetal bovine serum, heat inactivated (HyClone Laboratories Inc., Logan, UT, cat. SH30070.03HI), 389 ng/mL hydrocortisone (Sigma-Aldrich, cat. H4001), 9.7 ng/mL human EGF recombinant protein (Invitrogen, cat. PHG0313), 23.4 microg/mL adenine (Sigma-Aldrich, cat. A2786), 97.3 U/mL penicillin-streptomycin (Invitrogen, cat. 15140122), 1.9 mM L-glutamine (Invitrogen, cat. 25030081), and 9.7 microM Y-27632 dihydrochloride (Tocris Bioscience, Bristol, United Kingdom, cat. 1254). The PDCs were cultured in complete DMEM/F12 media without 9.7 microM Y-27632 dihydrochloride for at least two passages prior to the screen. The established cell line HOP-62 was cultured in RPMI 1640 medium, HEPES (Invitrogen, cat. 22400105) with 10% defined fetal bovine serum (HyClone Laboratories Inc., cat. SH30070.03) and 2 mM L-glutamine (Invitrogen, cat. 25030081). The pooled donor HUVEC were cultured in endothelial cell growth medium 2 (PromoCell, Heidelberg, Germany, cat. C-22011) and the hMSC were cultured in mesenchymal stem cell growth medium 2 (PromoCell, cat. C-28009). For all experiments, HUVEC and hMSC were used at passages </=5, while the malignant cell lines were used at passages </=15. […]

[1] = second compound 0.1 µM, first compound 0.01 µM
[2] = second compound 0.1 µM, first compound 0.0316 µM
[3] = second compound 0.1 µM, first compound 0.1 µM
[4] = second compound 0.1 µM, first compound 0.316 µM
[5] = second compound 0.1 µM, first compound 1 µM
[6] = second compound 0.1 µM, first compound 3.16 µM
[7] = second compound 0.316 µM, first compound 0.01 µM
[8] = second compound 0.316 µM, first compound 0.0316 µM
[9] = second compound 0.316 µM, first compound 0.1 µM
[10] = second compound 0.316 µM, first compound 0.316 µM
[11] = second compound 0.316 µM, first compound 1 µM
[12] = second compound 0.316 µM, first compound 3.16 µM
[13] = second compound 1 µM, first compound 0.01 µM
[14] = second compound 1 µM, first compound 0.0316 µM
[15] = second compound 1 µM, first compound 0.1 µM
[16] = second compound 1 µM, first compound 0.316 µM
[17] = second compound 1 µM, first compound 1 µM
[18] = second compound 1 µM, first compound 3.16 µM
[19] = second compound 3.16 µM, first compound 0.01 µM
[20] = second compound 3.16 µM, first compound 0.0316 µM
[21] = second compound 3.16 µM, first compound 0.1 µM
[22] = second compound 3.16 µM, first compound 0.316 µM
[23] = second compound 3.16 µM, first compound 1 µM
[24] = second compound 3.16 µM, first compound 3.16 µM
[25] = second compound 10 µM, first compound 0.01 µM
[26] = second compound 10 µM, first compound 0.0316 µM
[27] = second compound 10 µM, first compound 0.1 µM
[28] = second compound 10 µM, first compound 0.316 µM
[29] = second compound 10 µM, first compound 1 µM
[30] = second compound 10 µM, first compound 3.16 µM
[31] = second compound 0.1 µM, first compound 10 µM
[32] = second compound 0.316 µM, first compound 10 µM
[33] = second compound 1 µM, first compound 10 µM
[34] = second compound 3.16 µM, first compound 10 µM
[35] = second compound 10 µM, first compound 10 µM
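Further: spheroids exposed to compounds for seven days before readout.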

Row | Compound | IC50 (second compound 0.1 µM) [nM] | IC50 (second compound 0.316 µM) [nM] | IC50 (second compound 1 µM) [nM] | IC50 (second compound 3.16 µM) [nM] | IC50 (second compound 10 µM) [nM] | viability, T/C [2] [%] | viability, T/C [3] [%] | viability, T/C [4] [%] | viability, T/C [5] [%] | viability, T/C [6] [%] | viability, T/C [8] [%] | viability, T/C [9] [%] | viability, T/C [10] [%] | viability, T/C [11] [%] | viability, T/C [14] [%] | viability, T/C [15] [%] | viability, T/C [20] [%] | viability, T/C [21] [%] | viability, T/C [26] [%] | viability, T/C [27] [%] | further results
1 | CC(=O)OC12COC1CC(O)C1(C)C(=O)C(O)C3=C(C)C(OC(=O)C(O)C(NC(=O)OC(C)(C)C)c4ccccc4)CC(O)(C(OC(=O)c4ccccc4)C21)C3(C)C (stereo not given) + C=CC(=O)N1CCN(c2nc(=O)n(-c3c(C)ccnc3C(C)C)c3nc(-c4c(O)cccc4F)c(F)cc23)C(C)C1 | < 10 | < 10 | < 10 | < 10 | < 10 | 12.3 | 16 | 14.9 | 24 | 21.2 | 12.7 | 16.7 | 17.9 | 18 | 14.2 | 11.6 | 13.1 | 13.4 | 11 | 9.81 | viability, T/C [1]: 11.3%; viability, T/C [7]: 10.2%; viability, T/C [12]: 20.1%; viability, T/C [13]: 11.1%; viability, T/C [16]: 14.8%; viability, T/C [17]: 20.5%; viability, T/C [18]: 18.3%; viability, T/C [19]: 9.17%; viability, T/C [22]: 12.6%; viability, T/C [23]: 15.5%; viability, T/C [24]: 15.9%; viability, T/C [25]: 9.5%; viability, T/C [28]: 9.76%; viability, T/C [29]: 11.7%; viability, T/C [30]: 11.9%
2 | CN(C)C/C=C/C(=O)Nc1cc2c(Nc3ccc(F)c(Cl)c3)ncnc2cc1O[C@H]1CCOC1 + C=CC(=O)N1CCN(c2nc(=O)n(-c3c(C)ccnc3C(C)C)c3nc(-c4c(O)cccc4F)c(F)cc23)C(C)C1 | > 100 | > 100 | > 100 | > 100 | < 0.316 | 99.1 | 94 |  |  |  | 100 | 87.5 |  |  | 80.5 | 78.2 | 55.2 | 64.9 | 27.5 | 32.6 | viability, T/C (second compound 0.1 µM, first compound 0.000316 µM): 104%; viability, T/C (second compound 0.1 µM, first compound 0.001 µM): 97.8%; viability, T/C (second compound 0.1 µM, first compound 0.00316 µM): 98.7%; viability, T/C [1]: 83.3%; viability, T/C (second compound 0.316 µM, first compound 0.000316 µM): 96.6%; viability, T/C (second compound 0.316 µM, first compound 0.001 µM): 106%; viability, T/C (second compound 0.316 µM, first compound 0.00316 µM): 95.1%; viability, T/C [7]: 91.7%; viability, T/C (second compound 1 µM, first compound 0.000316 µM): 90.6%; viability, T/C (second compound 1 µM, first compound 0.001 µM): 85.6%; viability, T/C (second compound 1 µM, first compound 0.00316 µM): 81%; viability, T/C [13]: 95.3%; viability, T/C (second compound 3.16 µM, first compound 0.000316 µM): 78%; viability, T/C (second compound 3.16 µM, first compound 0.001 µM): 68.4%; viability, T/C (second compound 3.16 µM, first compound 0.00316 µM): 83.8%; viability, T/C [19]: 59.5%; viability, T/C (second compound 10 µM, first compound 0.000316 µM): 40.9%; viability, T/C (second compound 10 µM, first compound 0.001 µM): 40.2%; viability, T/C (second compound 10 µM, first compound 0.00316 µM): 35.9%; viability, T/C [25]: 32.3%
3 | COC(=O)c1ccc2c(C(=Nc3ccc(N(C)C(=O)CN4CCN(C)CC4)cc3)c3ccccc3)c(O)[nH]c2c1 + C=CC(=O)N1CCN(c2nc(=O)n(-c3c(C)ccnc3C(C)C)c3nc(-c4c(O)cccc4F)c(F)cc23)C(C)C1 | 157 | 226 | 242 | 106 | < 31.6 | 88.1 | 49.6 | 47.2 | 26.5 | 14.8 | 94.5 | 63.1 | 47.1 | 27.9 | 107 | 73.2 | 72.4 | 47.9 | 40 | 35.2 | viability, T/C [31]: 15.1%; viability, T/C [12]: 17.2%; viability, T/C [32]: 15.5%; viability, T/C [16]: 39.8%; viability, T/C [17]: 30.4%; viability, T/C [18]: 18.1%; viability, T/C [33]: 13.7%; viability, T/C [22]: 35.7%; viability, T/C [23]: 28.4%; viability, T/C [24]: 11.6%; viability, T/C [34]: 10.9%; viability, T/C [28]: 31.4%; viability, T/C [29]: 25.3%; viability, T/C [30]: 5.38%; viability, T/C [35]: 1.56%
4 | O=C(c1cc(Cc2n[nH]c(=O)c3ccccc23)ccc1F)N1CCN(C(=O)C2CC2)CC1 + C=CC(=O)N1CCN(c2nc(=O)n(-c3c(C)ccnc3C(C)C)c3nc(-c4c(O)cccc4F)c(F)cc23)C(C)C1 | 95.8 | 350 | 1630 | 1310 | < 31.6 | 84.6 | 47.1 | 32.3 | 21.4 | 17.5 | 92.6 | 86.3 | 52.2 | 26.3 | 100 | 92.8 | 68.7 | 67.2 | 42 | 43.9 | viability, T/C [31]: 14.8%; viability, T/C [12]: 30%; viability, T/C [32]: 17.2%; viability, T/C [16]: 83.1%; viability, T/C [17]: 71.2%; viability, T/C [18]: 20.6%; viability, T/C [33]: 20.9%; viability, T/C [22]: 75.8%; viability, T/C [23]: 51.9%; viability, T/C [24]: 33.7%; viability, T/C [34]: 18.3%; viability, T/C [28]: 36.3%; viability, T/C [29]: 27%; viability, T/C [30]: 29.2%; viability, T/C [35]: 14%
